ChEMBL document CHEMBL4346765, “Design, synthesis and biological evaluation of novel dithiocarbamate-substituted diphenylaminopyrimidine derivatives as BTK inhibitors” (Bioorg Med Chem, 2019)
Active and inactive are the calls of the source. The calls are words filed in the database; no cut-off is given here.

What was measured:
[1] = system: HEF; test: Cytotoxicity against human HEF cells assessed as reduction in cell viability at 0.1 to 40 uM incubated for 48 hrs by MTS assay; format: cell-based
[2] = system: Ramos; test: Antiproliferative activity against human Ramos cells assessed as reduction in cell growth incubated for 48 hrs by MTS assay
[3] = Cytotoxicity against human HELF cells assessed as reduction in cell viability at 0.1 to 40 uM incubated for 48 hrs by MTS assay; format: cell-based
[4] = system: MCF-10A; test: Cytotoxicity against human MCF10A cells assessed as reduction in cell viability at 0.1 to 40 uM incubated for 48 hrs by MTS assay; format: cell-based
[5] = system: HeLa; test: Cytotoxicity against human HeLa cells assessed as reduction in cell viability at 0.1 to 40 uM incubated for 48 hrs by MTS assay; format: functional, cell-based
[6] = system: Jurkat; test: Cytotoxicity against human Jurkat cells assessed as reduction in cell viability at 0.1 to 40 uM incubated for 48 hrs by MTS assay; format: functional, cell-based
[7] = system: 786-0; test: Cytotoxicity against human 786-O cells assessed as reduction in cell viability at 0.1 to 40 uM incubated for 48 hrs by MTS assay; format: functional, cell-based; conditions: 786-0, 48 h
[8] = system: BJ; test: Cytotoxicity against human BJ cells assessed as reduction in cell viability at 0.1 to 40 uM incubated for 48 hrs by MTS assay; format: cell-based
[9] = system: A549; test: Cytotoxicity against human A549 cells assessed as reduction in cell viability at 0.1 to 40 uM incubated for 48 hrs by MTS assay; format: functional, cell-based; conditions: A549, 48 h
[10] = system: HT-29; test: Cytotoxicity against human HT-29 cells assessed as reduction in cell viability at 0.1 to 40 uM incubated for 48 hrs by MTS assay; format: functional, cell-based; conditions: HT-29, 48 h
[11] = system: K562; test: Cytotoxicity against human K562 cells assessed as reduction in cell viability at 0.1 to 40 uM incubated for 48 hrs by MTS assay; format: functional, cell-based; conditions: K562, 48 h
[12] = system: HepG2; test: Cytotoxicity against human HepG2 cells assessed as reduction in cell viability at 0.1 to 40 uM incubated for 48 hrs by MTS assay; format: functional, cell-based; conditions: HepG2, 48 h
[13] = system: MCF7; test: Cytotoxicity against human MCF7 cells assessed as reduction in cell viability at 0.1 to 40 uM incubated for 48 hrs by MTS assay; format: functional, cell-based; conditions: MCF7, 48 h
[14] = system: KARPAS-299; test: Cytotoxicity against human KARPAS299 cells assessed as reduction in cell viability at 0.1 to 40 uM incubated for 48 hrs by MTS assay; format: functional, cell-based; conditions: KARPAS-299, 48 h
[15] = system: PC-3; test: Cytotoxicity against human PC3 cells assessed as reduction in cell viability at 0.1 to 40 uM incubated for 48 hrs by MTS assay; format: functional, cell-based; conditions: PC-3, 48 h
[16] = system: MDA-MB-231; test: Cytotoxicity against human MDA-MB-231 cells assessed as reduction in cell viability at 0.1 to 40 uM incubated for 48 hrs by MTS assay; format: functional, cell-based; conditions: MDA-MB-231, 48 h
[17] = system: NCI-H1299; test: Cytotoxicity against human H1299 cells assessed as reduction in cell viability at 0.1 to 40 uM incubated for 48 hrs by MTS assay; format: functional, cell-based; conditions: NCI-H1299, 48 h
[18] = system: NCI-H3122; test: Cytotoxicity against human NCI-H3122 cells assessed as reduction in cell viability at 0.1 to 40 uM incubated for 48 hrs by MTS assay; format: functional, cell-based; conditions: NCI-H3122, 48 h
[19] = system: Raji; test: Antiproliferative activity against human Raji cells assessed as reduction in cell growth incubated for 48 hrs by MTS assay
[20] = system: Ramos; test: Antitumor activity in human Ramos cells xenografted in NOD/SCID mouse assessed as reduction in tumor growth at 30 mg/kg/day, ip administered daily for 14 days; format: functional; conditions: 336 h, read-out: TGI
[21] = Toxicity in NOD/SCID mouse xenografted with human Ramos cells assessed as changes in body weight at 30 to 60 mg/kg/day, ip administered daily for 14 days; format: organism-based; conditions: in vivo, 336 h
[22] = Toxicity in NOD/SCID mouse xenografted with human Ramos cells assessed as induction of morphological lesions in kidney at 60 mg/kg/day, ip administered daily for 14 days by H and E staining based histologic analysis; format: organism-based; conditions: in vivo, 336 h
[23] = Toxicity in NOD/SCID mouse xenografted with human Ramos cells assessed as induction of morphological lesions in liver at 60 mg/kg/day, ip administered daily for 14 days by H and E staining based histologic analysis; format: organism-based; conditions: in vivo, 336 h
[24] = Toxicity in NOD/SCID mouse xenografted with human Ramos cells assessed as induction of morphological lesions in heart at 60 mg/kg/day, ip administered daily for 14 days by H and E staining based histologic analysis; format: organism-based; conditions: in vivo, 336 h
[25] = Toxicity in NOD/SCID mouse xenografted with human Ramos cells assessed as induction of morphological lesions in lung at 60 mg/kg/day, ip administered daily for 14 days by H and E staining based histologic analysis; format: organism-based; conditions: in vivo, 336 h
[26] = target: T1, Tyrosine-protein kinase BTK (Homo sapiens, UniProt Q06187); test: Inhibition of BTK in anti-IgM-stimulated human Ramos cells assessed as reduction in autophosphorylation at Y223 residues at 0.01 to 10 uM incubated for 4 hrs followed by anti-IgM stimulation for 30 mins by Western blot analysis; format: cell-based
[27] = system: Ramos; test: Antitumor activity in human Ramos cells xenografted in NOD/SCID mouse assessed as reduction in tumor growth at 60 mg/kg/day, ip administered daily for 14 days; format: functional; conditions: 336 h, read-out: TGI
[28] = target: T1, Tyrosine-protein kinase BTK; test: Inhibition of BTK in anti-IgM-stimulated human Ramos cells assessed as reduction in Erk phosphorylation at 0.01 to 10 uM incubated for 4 hrs followed by anti-IgM stimulation for 30 mins by Western blot analysis; format: cell-based
[29] = Toxicity in NOD/SCID mouse xenografted with human Ramos cells assessed as induction of morphological lesions in spleen at 60 mg/kg/day, ip administered daily for 14 days by H and E staining based histologic analysis; format: organism-based; conditions: in vivo, 336 h
[30] = target: T1, Tyrosine-protein kinase BTK; test: Inhibition of BTK in anti-IgM-stimulated human Ramos cells assessed as reduction in Akt phosphorylation at 0.01 to 10 uM incubated for 4 hrs followed by anti-IgM stimulation for 30 mins by Western blot analysis; format: cell-based
[31] = system: Ramos; test: Induction of apoptosis in human Ramos cells assessed as increase in cleaved PARP1 protein expression at 0.01 to 10 uM incubated for 8 hrs by Western blotting analysis; format: functional, cell-based
[32] = system: Ramos; test: Potency index,ratio of Spebrutinib IC50 to compound IC50 for antiproliferative activity against human Ramos cells assessed as reduction in cell growth incubated for 48 hrs by MTS assay; format: functional
[33] = system: Ramos; test: Potency index,ratio of Ibrutinib IC50 to compound IC50 for antiproliferative activity against human Ramos cells assessed as reduction in cell growth incubated for 48 hrs by MTS assay; format: functional
[34] = target: T1, Tyrosine-protein kinase BTK; test: Inhibition of human recombinant full length BTK expressed in baculovirus in Sf9 insect cells using Poly (4:1 Glu, Tyr) as substrate incubated for 1 hr by ADP-Glo assay
[35] = target: T1, Tyrosine-protein kinase BTK; test: Inhibition of BTK in anti-IgM-stimulated human Ramos cells assessed as reduction in PLCgamma2 phosphorylation at Y1217 residues at 0.01 to 10 uM incubated for 4 hrs followed by anti-IgM stimulation for 30 mins by Western blot analysis; format: cell-based
[36] = system: Raji; test: Potency index,ratio of Ibrutinib IC50 to compound IC50 for antiproliferative activity against human Raji cells assessed as reduction in cell growth incubated for 48 hrs by MTS assay; format: functional
[37] = system: Raji; test: Potency index,ratio of Spebrutinib IC50 to compound IC50 for antiproliferative activity against human Raji cells assessed as reduction in cell growth incubated for 48 hrs by MTS assay; format: functional
[38] = target: T1, Tyrosine-protein kinase BTK; test: Inhibition of BTK in anti-IgM-stimulated human Ramos cells assessed as reduction in PLCgamma2 phosphorylation at Y1217 residues at 10 uM incubated for 4 hrs followed by anti-IgM stimulation for 30 mins by Western blot analysis; format: cell-based

T1 sequence (Q06187 whole entry): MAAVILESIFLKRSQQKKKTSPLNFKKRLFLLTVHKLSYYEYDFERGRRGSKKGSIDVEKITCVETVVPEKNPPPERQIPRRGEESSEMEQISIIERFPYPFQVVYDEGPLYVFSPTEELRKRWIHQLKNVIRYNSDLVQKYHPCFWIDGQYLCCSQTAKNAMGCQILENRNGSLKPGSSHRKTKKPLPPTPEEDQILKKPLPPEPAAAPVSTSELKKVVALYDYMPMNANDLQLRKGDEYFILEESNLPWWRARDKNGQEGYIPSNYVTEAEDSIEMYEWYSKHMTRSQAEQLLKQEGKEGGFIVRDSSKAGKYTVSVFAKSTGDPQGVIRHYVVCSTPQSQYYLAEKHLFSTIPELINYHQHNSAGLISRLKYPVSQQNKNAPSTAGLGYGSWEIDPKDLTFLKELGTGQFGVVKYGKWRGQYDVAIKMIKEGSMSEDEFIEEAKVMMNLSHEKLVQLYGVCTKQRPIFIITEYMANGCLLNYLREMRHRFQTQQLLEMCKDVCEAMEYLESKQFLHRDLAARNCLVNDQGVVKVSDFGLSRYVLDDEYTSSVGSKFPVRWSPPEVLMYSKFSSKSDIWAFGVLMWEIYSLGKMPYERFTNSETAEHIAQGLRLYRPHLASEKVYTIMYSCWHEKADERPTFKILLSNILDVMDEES

Row | IC50 [2] [µM] | IC50 [19] [µM] | Compound | IC50 [1] [µM] | IC50 [3] [µM] | IC50 [4] [µM] | IC50 [5] [µM] | IC50 [6] [µM] | IC50 [7] [µM] | IC50 [8] [µM] | IC50 [9] [µM] | IC50 [10] [µM] | IC50 [11] [µM] | IC50 [12] [µM] | IC50 [13] [µM] | IC50 [14] [µM] | IC50 [15] [µM] | IC50 [16] [µM] | IC50 [17] [µM] | IC50 [18] [µM] | inhibition in vivo at 30 mg/kg/day [20] [%] | also measured
1 | 5.44 | 21.6 | C=CC(=O)Nc1cccc(Nc2nc(Nc3ccc(OCCOC)cc3)ncc2F)c1 [SPEBRUTINIB] | 22.6 | 16 | 4.36 | 17.4 | 6.7 | 14.9 | 27.6 | 1.98 | 18.9 | 12.6 | 33.5 | 29 | 20.3 | 22.2 | > 40 | 38.5 | 32.5 | 28.9 | –
2 | 0.357 | 0.706 | C=CC(=O)Nc1cccc(Nc2nc(Nc3ccc(OCCSC(=S)NCc4cccnc4)cc3)ncc2F)c1 | 28.4 | 19.3 | 8.62 | 8.74 | 2.49 | 4.96 | 12.8 | 3.2 | 10.2 | 3.27 | 16.2 | 17.4 | > 40 | 8.25 | 35.4 | 17.9 | 33.4 | 21.5 | Activity [21]: Non-Toxic; Activity [22]: Non-Toxic; Activity [23]: Non-Toxic; Activity [24]: Non-Toxic; Activity [25]: Non-Toxic; inhibition [26]: Active; inhibition in vivo at 60 mg/kg/day [27]: 57.8%; inhibition [28]: inactive; Activity [29]: Non-Toxic; inhibition [30]: Active; Activity [31]: Active; Ratio IC50 [32]: 10; Ratio IC50 [33]: 10; IC50 [34]: 0.00115 µM; inhibition [35]: Dose-dependent effect; Ratio IC50 [36]: 10; Ratio IC50 [37]: 10
3 | > 40 | > 40 | CCC(=O)Nc1cccc(Nc2nc(Nc3ccc(OCCSC(=S)NCc4cccnc4)cc3)ncc2F)c1 | – | – | – | – | – | – | – | – | – | – | – | – | – | – | – | – | – | – | inhibition [38]: inactive; IC50 [34]: > 0.5 µM
